Assay results from patent publication US9181305B2, “Exendin-4 peptide analogues” (SANOFI, priority 2012, dated 2015).
*1 amine or outer side, *2 acyl side, *3 side chain or, on linkers, in order; H or OH if unused. Where a SMILES comes first, the peptide text is derived from it. Side-chain parts run from the residue outwards. [ ]: non-standard residue; d: D form. The star is where a group is joined. γGlu = O=C(O)[C@H](CCC(=O)[*:2])N[*:1]; Palmitoyl = CCCCCCCCCCCCCCCC(=O)*; Cha = N[C@@H](CC1CCCCC1)C(=O)O; Orn = NCCC[C@H](N)C(=O)O; Aib = CC(C)(N)C(=O)O; βAla = NCCC(=O)O

biological target: T1, human GLP-1 receptor (hGLP-1 R) (Homo sapiens, UniProt P43220); assay: cAMP response (HTRF) of HEK-293 cells stably expressing human GLP-1 receptor; format: cell-based; conditions: HEK-293 cells expressing human GLP-1 receptor, cAMP formation
T1 construct: expressed in transfected cells; host or cells: HEK-293
T1 sequence (P43220 24-463): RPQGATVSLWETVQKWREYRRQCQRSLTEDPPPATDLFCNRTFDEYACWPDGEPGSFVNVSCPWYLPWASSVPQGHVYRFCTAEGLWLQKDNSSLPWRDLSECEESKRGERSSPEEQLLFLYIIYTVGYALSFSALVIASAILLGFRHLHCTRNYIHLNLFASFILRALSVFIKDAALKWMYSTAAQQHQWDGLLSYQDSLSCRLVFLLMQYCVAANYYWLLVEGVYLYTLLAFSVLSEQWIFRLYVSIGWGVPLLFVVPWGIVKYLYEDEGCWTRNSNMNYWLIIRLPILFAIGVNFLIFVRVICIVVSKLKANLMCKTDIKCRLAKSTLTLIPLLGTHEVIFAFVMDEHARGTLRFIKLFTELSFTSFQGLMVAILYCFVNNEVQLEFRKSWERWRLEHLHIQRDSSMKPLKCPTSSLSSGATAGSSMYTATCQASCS
Procedure: cAMP content of cells was determined using a kit from Cisbio Corp. (cat. no. 62AM4PEC) based on HTRF (Homogenous Time Resolved Fluorescence). For preparation, cells were split into T175 culture flasks and grown overnight to near confluency in medium (DMEM/10% FBS). Medium was then removed and cells washed with PBS lacking calcium and magnesium, followed by proteinase treatment with accutase (Sigma-Aldrich cat. no. A6964). Detached cells were washed and resuspended in assay buffer (1×HBSS; 20 mM HEPES, 0.1% BSA, 2 mM IBMX) and cellular density determined. […] For measurement, 25 μl of test compound in assay buffer was added to the wells, followed by incubation for 30 minutes at room temperature.

Point of comparison: `CCCCCCCCCCCCCCCC(=O)N[C@@H](CCC(=O)NCCCC[C@H](NC(=O)[C@H](CO)NC(=O)[C@@H]1CCCN1C(=O)[C@@H]1CCCN1C(=O)[C@@H]1CCCN1C(=O)[C@H](C)NC(=O)CNC(=O)[C@H](CO)NC(=O)[C@H](CO)NC(=O)[C@@H]1CCCN1C(=O)CNC(=O)CNC(=O)[C@H](C)NC(=O)[C@H](CCCCN)NC(=O)[C@H](CC(C)C)NC(=O)[C@H](Cc1c[nH]c2ccccc12)NC(=O)[C@H](CCC(=O)O)NC(=O)[C@@H](NC(=O)[C@H](Cc1ccccc1)NC(=O)[C@H](CC(C)C)NC(=O)[C@H](CCC(N)=O)NC(=O)[C@H](C)NC(=O)[C@H](C)NC(=O)[C@H](CCC(=O)O)NC(=O)[C@H](CO)NC(=O)[C@H](CCC(=O)O)NC(=O)[C@H](CCSC)NC(=O)[C@H](CCC(N)=O)NC(=O)[C@H](CCCCN)NC(=O)[C@H](CO)NC(=O)[C@H](CC(C)C)NC(=O)[C@H](CC(=O)O)NC(=O)[C@H](CO)NC(=O)[C@@H](NC(=O)[C@H](Cc1ccccc1)NC(=O)[C@@H](NC(=O)CNC(=O)[C@H](CCC(N)=O)NC(=O)[C@@H](CO)NC(=O)[C@@H](N)Cc1c[nH]cn1)[C@@H](C)O)[C@@H](C)O)[C@@H](C)CC)C(N)=O)C(=O)O` [(114)] (H-H[dS]QGTFTSDLSKQMESEAAQLFIEWLKAGGPSSGAPPPSK([γGlu-Palmitoyl])-NH2), EC50 3.1 pM. Against it:
- CCCCCCCCCCCCCCCC(=O)N[C@@H](CCC(=O)NCCCC[C@H](NC(=O)[C@@H]1CCCN1C(=O)[C@@H]1CCCN1C(=O)[C@@H]1CCCN1C(=O)[C@H](C)NC(=O)CNC(=O)[C@H](CO)NC(=O)[C@H](CO)NC(=O)[C@@H]1CCCN1C(=O)CNC(=O)CNC(=O)C(C)(C)NC(=O)[C@H](CCCCN)NC(=O)[C@H](CC(C)C)NC(=O)[C@H](Cc1c[nH]c2ccccc12)NC(=O)[C@H](CCC(=O)O)NC(=O)[C@@H](NC(=O)[C@H](Cc1ccccc1)NC(=O)[C@H](CC(=O)O)NC(=O)[C@H](CCC(N)=O)NC(=O)[C@H](C)NC(=O)[C@H](CCCNC(=N)N)NC(=O)[C@H](CCCNC(=N)N)NC(=O)[C@H](CO)NC(=O)[C@H](CCC(=O)O)NC(=O)[C@H](CCSC)NC(=O)[C@H](CCC(N)=O)NC(=O)[C@H](CCCCN)NC(=O)[C@H](CO)NC(=O)[C@H](CC(C)C)NC(=O)[C@H](CC(=O)O)NC(=O)[C@H](CO)NC(=O)[C@@H](NC(=O)[C@H](Cc1ccccc1)NC(=O)[C@@H](NC(=O)CNC(=O)[C@H](CCC(N)=O)NC(=O)[C@@H](CO)NC(=O)[C@@H](N)Cc1c[nH]cn1)[C@@H](C)O)[C@@H](C)O)[C@@H](C)CC)C(N)=O)C(=O)O [(80)] (H-H[dS]QGTFTSDLSKQMESRRAQDFIEWLK[Aib]GGPSSGAPPPK([γGlu-Palmitoyl])-NH2) — 3.5-fold higher, 10.8 pM
- CCCCCCCCCCCCCCCC(=O)N[C@@H](CCC(=O)NCCCC[C@H](NC(=O)[C@H](CO)NC(=O)[C@@H]1CCCN1C(=O)[C@@H]1CCCN1C(=O)[C@@H]1CCCN1C(=O)[C@H](C)NC(=O)CNC(=O)[C@H](CO)NC(=O)[C@H](CO)NC(=O)[C@@H]1CCCN1C(=O)CNC(=O)CNC(=O)[C@H](C)NC(=O)[C@H](CCCCN)NC(=O)[C@H](CC(C)C)NC(=O)[C@H](Cc1c[nH]c2ccccc12)NC(=O)[C@H](CCC(=O)O)NC(=O)[C@@H](NC(=O)[C@H](Cc1ccccc1)NC(=O)[C@H](CC(=O)O)NC(=O)[C@H](CCC(N)=O)NC(=O)[C@H](C)NC(=O)[C@H](C)NC(=O)C(C)(C)NC(=O)[C@H](CO)NC(=O)[C@H](CCC(=O)O)NC(=O)[C@H](CCSC)NC(=O)[C@H](CCC(N)=O)NC(=O)[C@H](CCCCN)NC(=O)[C@H](CO)NC(=O)[C@H](CC(C)C)NC(=O)[C@H](CC(=O)O)NC(=O)[C@H](CO)NC(=O)[C@@H](NC(=O)[C@H](Cc1ccccc1)NC(=O)[C@@H](NC(=O)CNC(=O)[C@H](CCC(N)=O)NC(=O)[C@@H](CO)NC(=O)[C@@H](N)Cc1c[nH]cn1)[C@@H](C)O)[C@@H](C)O)[C@@H](C)CC)C(N)=O)C(=O)O [(111)] (H-H[dS]QGTFTSDLSKQMES[Aib]AAQDFIEWLKAGGPSSGAPPPSK([γGlu-Palmitoyl])-NH2) — within 1.5-fold, 4.1 pM
- CCCCCCCCCCCCCCCC(=O)NCCC(=O)NCCC(=O)NCCCC[C@H](NC(=O)[C@H](CO)NC(=O)[C@@H]1CCCN1C(=O)[C@@H]1CCCN1C(=O)[C@@H]1CCCN1C(=O)[C@H](C)NC(=O)CNC(=O)[C@H](CO)NC(=O)[C@H](CO)NC(=O)[C@@H]1CCCN1C(=O)CNC(=O)CNC(=O)[C@H](CO)NC(=O)[C@H](CCCCN)NC(=O)[C@H](CC(C)C)NC(=O)[C@H](Cc1c[nH]c2ccccc12)NC(=O)[C@H](CCC(=O)O)NC(=O)[C@@H](NC(=O)[C@H](Cc1ccccc1)NC(=O)[C@H](CC(=O)O)NC(=O)[C@H](CCC(N)=O)NC(=O)[C@H](C)NC(=O)[C@H](CCCNC(=N)N)NC(=O)[C@H](CCCNC(=N)N)NC(=O)[C@H](CO)NC(=O)[C@H](CCC(=O)O)NC(=O)[C@H](CCSC)NC(=O)[C@H](CCC(N)=O)NC(=O)[C@H](CCCCN)NC(=O)[C@H](CO)NC(=O)[C@H](CC(C)C)NC(=O)[C@H](CC(=O)O)NC(=O)[C@H](CO)NC(=O)[C@@H](NC(=O)[C@H](Cc1ccccc1)NC(=O)[C@@H](NC(=O)CNC(=O)[C@H](CCC(N)=O)NC(=O)[C@@H](CO)NC(=O)[C@@H](N)Cc1c[nH]cn1)[C@@H](C)O)[C@@H](C)O)[C@@H](C)CC)C(N)=O [(98)] (H-H[dS]QGTFTSDLSKQMESRRAQDFIEWLKSGGPSSGAPPPSK([βAla-βAla-Palmitoyl])-NH2) — 1.6-fold higher, 5.1 pM
- CCCCCCCCCCCCCCCC(=O)N[C@@H](CCC(=O)NCCC[C@H](NC(=O)[C@H](CO)NC(=O)[C@@H]1CCCN1C(=O)[C@@H]1CCCN1C(=O)[C@@H]1CCCN1C(=O)[C@H](C)NC(=O)CNC(=O)[C@H](CO)NC(=O)[C@H](CO)NC(=O)[C@@H]1CCCN1C(=O)CNC(=O)CNC(=O)[C@H](CO)NC(=O)[C@H](CCCCN)NC(=O)[C@H](CC(C)C)NC(=O)[C@H](Cc1c[nH]c2ccccc12)NC(=O)[C@H](CCC(=O)O)NC(=O)[C@@H](NC(=O)[C@H](Cc1ccccc1)NC(=O)[C@H](CC(=O)O)NC(=O)[C@H](CCC(N)=O)NC(=O)[C@H](C)NC(=O)[C@H](CCCNC(=N)N)NC(=O)[C@H](CCCNC(=N)N)NC(=O)[C@H](CO)NC(=O)[C@H](CCC(=O)O)NC(=O)[C@H](CCSC)NC(=O)[C@H](CCC(N)=O)NC(=O)[C@H](CCCCN)NC(=O)[C@H](CO)NC(=O)[C@H](CC(C)C)NC(=O)[C@H](CC(=O)O)NC(=O)[C@H](CO)NC(=O)[C@@H](NC(=O)[C@H](Cc1ccccc1)NC(=O)[C@@H](NC(=O)CNC(=O)[C@H](CCC(N)=O)NC(=O)[C@@H](CO)NC(=O)[C@@H](N)Cc1c[nH]cn1)[C@@H](C)O)[C@@H](C)O)[C@@H](C)CC)C(N)=O)C(=O)O [(88)] (H-H[dS]QGTFTSDLSKQMESRRAQDFIEWLKSGGPSSGAPPPS[Orn]([γGlu-Palmitoyl])-NH2) — 1.6-fold higher, 5.1 pM
- CCCCCCCCCCCCCCCC(=O)N[C@@H](CCC(=O)NCCCC[C@H](NC(=O)[C@H](CO)NC(=O)[C@@H]1CCCN1C(=O)[C@@H]1CCCN1C(=O)[C@@H]1CCCN1C(=O)[C@H](C)NC(=O)CNC(=O)[C@H](CO)NC(=O)[C@H](CO)NC(=O)[C@@H]1CCCN1C(=O)CNC(=O)CNC(=O)[C@H](C)NC(=O)[C@H](CCCCN)NC(=O)[C@H](CC(C)C)NC(=O)[C@H](Cc1c[nH]c2ccccc12)NC(=O)[C@H](CCC(=O)O)NC(=O)[C@@H](NC(=O)[C@H](Cc1ccccc1)NC(=O)[C@H](CC(=O)O)NC(=O)[C@H](CCC(N)=O)NC(=O)[C@H](C)NC(=O)[C@H](CCCNC(=N)N)NC(=O)[C@H](CCCNC(=N)N)NC(=O)[C@H](CO)NC(=O)[C@H](CCC(=O)O)NC(=O)[C@H](CC1CCCCC1)NC(=O)[C@H](CCC(N)=O)NC(=O)[C@H](CCCCN)NC(=O)[C@H](CO)NC(=O)[C@H](CC(C)C)NC(=O)[C@H](CC(=O)O)NC(=O)[C@H](CO)NC(=O)[C@@H](NC(=O)[C@H](Cc1ccccc1)NC(=O)[C@@H](NC(=O)CNC(=O)[C@H](CCC(N)=O)NC(=O)[C@@H](CO)NC(=O)[C@@H](N)Cc1c[nH]cn1)[C@@H](C)O)[C@@H](C)O)[C@@H](C)CC)C(N)=O)C(=O)O [(95)] (H-H[dS]QGTFTSDLSKQ[Cha]ESRRAQDFIEWLKAGGPSSGAPPPSK([γGlu-Palmitoyl])-NH2) — 2.2-fold higher, 6.7 pM
- CCCCCCCCCCCCCCCC(=O)N[C@@H](CCC(=O)NCCCC[C@H](NC(=O)[C@H](CO)NC(=O)[C@@H]1CCCN1C(=O)[C@@H]1CCCN1C(=O)[C@@H]1CCCN1C(=O)[C@H](C)NC(=O)CNC(=O)[C@H](CO)NC(=O)[C@H](CO)NC(=O)[C@@H]1CCCN1C(=O)CNC(=O)CNC(=O)[C@H](CO)NC(=O)[C@H](CCCCN)NC(=O)[C@H](CC(C)C)NC(=O)[C@H](Cc1c[nH]c2ccccc12)NC(=O)[C@H](CCC(=O)O)NC(=O)[C@@H](NC(=O)[C@H](Cc1ccccc1)NC(=O)[C@H](CC(C)C)NC(=O)[C@H](CCCNC(=N)N)NC(=O)[C@H](C)NC(=O)[C@H](CCCNC(=N)N)NC(=O)[C@H](CCCNC(=N)N)NC(=O)[C@H](CO)NC(=O)[C@H](CCC(=O)O)NC(=O)[C@H](CCSC)NC(=O)[C@H](CCC(N)=O)NC(=O)[C@H](CCCCN)NC(=O)[C@H](CO)NC(=O)[C@H](CC(C)C)NC(=O)[C@H](CC(=O)O)NC(=O)[C@H](CO)NC(=O)[C@@H](NC(=O)[C@H](Cc1ccccc1)NC(=O)[C@@H](NC(=O)CNC(=O)[C@H](CCC(N)=O)NC(=O)[C@@H](CO)NC(=O)[C@@H](N)Cc1c[nH]cn1)[C@@H](C)O)[C@@H](C)O)[C@@H](C)CC)C(N)=O)C(=O)O [(91)] (H-H[dS]QGTFTSDLSKQMESRRARLFIEWLKSGGPSSGAPPPSK([γGlu-Palmitoyl])-NH2) — 2.2-fold higher, 6.7 pM
